Laboratory results published in US6103732A, “Carboxylic acid derivatives, their production and use” (BASF Aktiengesellschaft, priority 1996, dated 2000).
Where two headings read alike, the source gives them in different places.

What was measured:
[1] = molecular target: T1, human ETA receptor (Homo sapiens, UniProt P25101); test: Receptor binding assay, ETA ([125I]-ET1, membranes of ETA receptor-expressing CHO cells)
T1 construct: expressed in transfected cells; host or cells: CHO cells
T1 sequence (P25101 21-427): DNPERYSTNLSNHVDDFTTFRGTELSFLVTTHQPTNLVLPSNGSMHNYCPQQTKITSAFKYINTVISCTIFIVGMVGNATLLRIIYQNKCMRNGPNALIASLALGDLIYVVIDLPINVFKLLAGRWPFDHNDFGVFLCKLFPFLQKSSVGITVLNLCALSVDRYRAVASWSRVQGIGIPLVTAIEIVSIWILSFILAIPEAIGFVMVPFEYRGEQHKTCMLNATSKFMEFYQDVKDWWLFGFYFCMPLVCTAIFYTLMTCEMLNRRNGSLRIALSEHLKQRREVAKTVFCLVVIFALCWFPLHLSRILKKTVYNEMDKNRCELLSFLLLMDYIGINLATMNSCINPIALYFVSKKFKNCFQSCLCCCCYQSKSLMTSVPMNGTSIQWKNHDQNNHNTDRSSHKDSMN
Protocol: (§1) Cloned human ETA receptor-expressing CHO cells and guinea pig cerebellar membranes with >60% ETB compared with ETA receptors were used for binding studies.
The ETA receptor-expressing CHO cells were grown in F12 medium containing 10% fetal calf serum, 1% glutamine, 100 E/ml penicillin and 0.2% streptomycin (Gibco BRL, Gaithersburg, Md., USA). After 48 h, the cells were washed with PBS and incubated with 0.05% trypsin-containing PBS for 5 min. Neutralization was then carried out with F12 medium and the cells were collected by centrifugation at 300×g. To lyse the cells, the pellet was briefly washed with lysis buffer (5 mM tris-HCl, pH 7.4 with 10% glycerol) and then incubated at a concentration of 10^7 cells/ml of lysis buffer at 4° C. for 30 min. The membranes were centrifuged at 20,000×g for 10 min, and the pellet was stored in liquid nitrogen.
(§2) The nonspecific binding was determined with 10^-7 M ET1. After 30 min, filtration was carried out through GF/B glass fiber filters (Whatman, England) in a Skatron cell collector (Skatron, Lier, Norway) to separate free and bound radioligands, and the filters were washed with ice-cold tris-HCl buffer, pH 7.4 with 0.2% BSA. The radioactivity collected on the filters was quantified using a Packard 2200 CA liquid scintillation counter.

[2] = molecular target: T2, ETB receptor (Cavia porcellus, UniProt H0VTF3); test: Receptor binding assay, ETB ([125I]-RZ3, guinea pig cerebellar membranes)
T2 construct: Guinea pig cerebella were homogenized in a Potter-Elvejhem homogenizer; from tissue; host or cells: guinea pig cerebellum (membranes)
T2 sequence (H0VTF3 27-415): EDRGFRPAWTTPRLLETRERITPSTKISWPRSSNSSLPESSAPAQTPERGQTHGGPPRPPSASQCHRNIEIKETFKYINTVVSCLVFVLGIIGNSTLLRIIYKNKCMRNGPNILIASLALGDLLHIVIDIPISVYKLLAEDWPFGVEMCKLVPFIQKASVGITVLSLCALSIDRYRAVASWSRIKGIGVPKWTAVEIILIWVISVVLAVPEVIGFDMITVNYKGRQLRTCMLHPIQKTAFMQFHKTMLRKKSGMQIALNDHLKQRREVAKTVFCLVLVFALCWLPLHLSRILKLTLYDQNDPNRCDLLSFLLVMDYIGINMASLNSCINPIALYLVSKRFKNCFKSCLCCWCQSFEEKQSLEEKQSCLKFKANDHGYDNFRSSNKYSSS
Protocol: as §1
Guinea pig cerebella were homogenized in a Potter-Elvejhem homogenizer and were obtained by differential centrifugation at 1,000×g for 10 min and repeated centrifugation of the supernatent at 20,000×g for 10 min.
as §2

[3] = cloned human ETA receptor-expressing CHO cell membranes, 25 pM [125I]-ET1, 30 min, read-out: Receptor binding data (Ki values) ETA
[4] = guinea pig cerebellar membranes (>60% ETB compared with ETA receptors), 25 pM [125I]-RZ3, 30 min, read-out: Receptor binding data (Ki values) ETB

SMILES	Ki [1] [µM]	Ki [2] [µM]	Ki [1, 3] [µM]	Ki [2, 4] [µM]
COc1cc(OC(C(=O)O)C(OC)(c2ccccc2)c2ccccc2)nc(OC)n1 (centres unmarked) [Compound I-1, 2-(2,6-Dimethoxy-4-pyrimidinyloxy)-3-methoxy-3,3-diphenyl-propionic acid]	0.038	8		
COC(c1ccccc1)(c1ccccc1)C(Oc1cc(C(F)(F)F)nc(C(C)(C)C)n1)C(=O)O (centres unmarked) [Compound I-91, 2-(2-tert-Butyl-6-trifluoromethyl-4-pyrimidinyloxy)-3-methoxy-3,3-diphenylpropionic acid]			3.3	> 10
COC(c1ccccc1)(c1ccccc1)C(Oc1cc(C)c2ccccc2n1)C(=O)O (centres unmarked) [Compound I-166, 2-(4-Methyl-2-quinolinyloxy)-3-methoxy-3,3-diphenylpropionic acid]			0.5	4
COC(c1ccccc1)(c1ccccc1)C(Oc1ccc2ccccc2n1)C(=O)O (centres unmarked) [Compound I-167]			3	> 7
